Several values for one entry are separate records, joined by “and”; a condition that tells them apart may be missing. Identical values can stand only once.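 All cell lines were grown in 96-well plates and treated with compound for 48 hours. GI50 is the concentration that inhibits growth by half. Definition used: TGI = concentration required for complete inhibition of growth.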 Where a SMILES comes first, the peptide text is derived from it. [ ]: non-standard residue; d: D form. The star is where a group is joined. ξ: configuration not given here. X16 = COC1=CC(=O)N(C(=O)C(O*)C(C)C)C1Cc1ccccc1; ξNMe2Val = CC(C)C(C(=O)*)N(C)C; NMeV = CN[CH](C(=O)O)C(C)C
Tests used:
Assay in all cases: growth of human tumour cells (NCI), 48 h
SK-MEL-5 melanoma = tested on: SK-MEL-5 melanoma
IGROV1 ovarian = tested on: IGROV1 ovarian
CCRF-CEM leukemia = tested on: CCRF-CEM leukemia
NCI-H23 lung = tested on: NCI-H23 lung
HOP-62 NSCLC = tested on: HOP-62 NSCLC
OVCAR-8 ovarian = tested on: OVCAR-8 ovarian
SN12C renal = tested on: SN12C renal
SF-539 CNS = tested on: SF-539 CNS
SNB-75 CNS = tested on: SNB-75 CNS
HCT-15 colon = tested on: HCT-15 colon

Row | Compound | TGI (SK-MEL-5 melanoma) [µM] | TGI (IGROV1 ovarian) [µM] | TGI (CCRF-CEM leukemia) [µM] | TGI (NCI-H23 lung) | TGI (HOP-62 NSCLC) [µM] | TGI (OVCAR-8 ovarian) [µM] | TGI (SN12C renal) [µM] | TGI (SF-539 CNS) | TGI (SNB-75 CNS) [µM] | TGI (HCT-15 colon) [µM] | GI50 (SK-MEL-5 melanoma) [µM] | GI50 (IGROV1 ovarian) [µM] | GI50 (NCI-H23 lung) [µM] | GI50 (HOP-62 NSCLC) [µM] | GI50 (OVCAR-8 ovarian) [µM] | GI50 (SN12C renal) [µM] | GI50 (SF-539 CNS) [µM] | GI50 (SNB-75 CNS) [µM] | GI50 (HCT-15 colon) [µM] | GI50 (CCRF-CEM leukemia) [µM]
1 | COc1ccc2c(O)c3[n+](cc2c1OC)CCc1cc2c(cc1-3)OCO2 | > 100 | > 100 | > 100 | > 100 µM | > 100 | > 100 | > 100 | > 100 µM | > 100 | > 100 | – | – | – | – | – | – | – | – | – | –
2 | COc1ccc(C(=O)C2CC3(CCC2(O)c2ccc(OC)cc2)CC(=O)Nc2ccccc2C3=O)cc1 (stereo not drawn) | > 100 | > 100 | > 100 | > 100 µM | > 100 | > 100 | > 100 | > 100 µM | > 100 | > 100 | – | – | – | – | – | – | – | – | – | –
3 | OCC(O)COc1ccc(Br)cc1 (stereo not drawn) | > 100 | > 100 | > 100 | > 100 µM | > 100 | > 100 | > 100 | > 100 µM | > 100 | > 100 | – | – | – | – | – | – | – | – | – | –
4 | Nc1cc2c(cc1[N+](=O)[O-])[nH]c1c(-c3ccccc3)nccc12 | 31.7 | 35.9 | 74.7 | 39.5 µM | 41.4 | > 100 | > 100 | > 75.4 µM | 55.7 | > 57.3 | – | – | – | – | – | – | – | – | – | –
5 | COC1=CC(=O)N(C(=O)C(OC(=O)C2CCCN2C(=O)C2CCCN2C(=O)C(C(C)C)N(C)C(=O)C(NC(=O)C(C(C)C)N(C)C)C(C)C)C(C)C)C1Cc1ccccc1 (stereo not drawn) (ξNMe2Val-V[NMeV]PP-X16; configuration not given here) | – | > 4 | 0.00744 | 0.0145 µM | > 4 | – | – | 0.00516 µM and 0.0481 µM | – | 0.431 | < 0.0004 | < 0.0004 | < 0.0004 | 0.00241 | < 0.0004 | < 0.0004 | < 0.0004 | < 0.0004 | < 0.0004 | –
6 | Cc1ccc(N=Nc2c(O)c3ccccc3[nH]c2=O)c(S(=O)(=O)N(C)C)c1 | > 100 | > 100 | > 100 | > 100 µM | > 100 | > 100 | > 100 | > 100 µM | > 100 | > 100 | – | – | – | – | – | – | – | – | – | –
7 | Cc1ccc(OP2(=O)Oc3ccc4ccccc4c3CN2c2ccc(Cl)cc2)cc1C (stereo not drawn) | > 100 | > 100 | > 100 | > 100 µM | > 100 | > 100 | > 100 | > 100 µM | > 100 | > 100 | – | – | – | – | – | – | – | – | – | –
8 | O=C(NCc1cn(Cc2cccc(Oc3ccccc3)c2)nn1)c1cccnc1Nc1ccccc1 | 28.3 | > 100 | > 100 | > 100 µM | > 100 | > 100 | 51.2 | 8.6 µM | 9.96 | > 100 | 3.89 | 5.86 | 3.73 | 5.58 | 4.39 | 4.3 | 3.1 | 1.94 | 3.81 | 3.34
9 | CCOc1ncn(-c2ccc(NC(=S)Nc3cccc(O)c3)cc2)n1 | > 100 | > 100 | > 100 | > 100 µM | > 100 | > 100 | > 100 | > 100 µM | > 100 | > 100 | – | – | – | – | – | – | – | – | – | –
10 | COC[C@H]1C(=O)NCC(=O)N2NCCC[C@H]2C(=O)N(O)[C@H](C)C(=O)O[C@@H](C(C)C)[C@H](NC(=O)[C@](C)(O)[C@]2(O)CC[C@@H](CC(C)C)[C@H](C)O2)C(=O)N2NCCC[C@@H]2C(=O)N1O | – | – | – | 0.0364 µM | 0.0149 | 0.0306 | 0.0411 | 0.0285 µM | 0.011 | 0.0433 | – | – | < 0.01 | < 0.01 | < 0.01 | < 0.0126 | 0.0146 | < 0.01 | 0.0176 | –
11 | CO/C(=N\N=C(/C)C(F)(F)F)c1ccncc1 | > 100 | > 100 | > 100 | > 100 µM | > 100 | > 100 | > 100 | – | > 100 | > 100 | – | – | – | – | – | – | – | – | – | –
12 | CC1(C)CCc2c(cc3c(c2O)CCC(C)(C)O3)O1 | > 100 | > 100 | > 100 | > 100 µM | > 100 | > 100 | > 100 | > 100 µM | > 100 | > 100 | – | – | – | – | – | – | – | – | – | –
13 | C=C1CC2CC[C@@]34C[C@@H]5O[C@@H]6C(O[C@H]7CC[C@H](CC(=O)OC8[C@@H](C)C9OC%10C[C@]%11(C[C@@H]%12O[C@@]%13(C[C@@H](C)[C@@H]%12O%11)C[C@H](C)[C@@H]%11OC%12CC(C(O)CO)OC%12C[C@@H]%11O%13)OC%10CC9O[C@H]8C[C@H]8O[C@@H](CC[C@@H]1O2)C[C@@H](C)C8=C)O[C@@H]7[C@@H]6O3)C5O4 (stereo partly drawn) | 0.00591 | > 1.48 | – | 0.0068 µM and 0.00198 µM | – | 0.0305 | > 1.48 | 0.00562 µM and 0.00215 µM | 0.00367 | – | – | < 0.000148 | < 0.000148 | 0.000174 | < 0.000148 | < 0.000148 | < 0.000148 | – | 0.000233 | < 0.000148
14 | C=C/C(C)=C/[C@H](C)C(=O)C[C@H](O)CC1CC(=O)NC(=O)C1 | > 100 | > 86.7 | > 100 | > 100 µM | > 91.1 | > 100 | > 100 | > 100 µM | > 100 | > 100 | – | – | – | – | – | – | – | – | – | –

Reference: PubChem BioAssay (NCI)
